Ends that are not written are not given here.
Tests used:
UPF1-LIN28A interaction = experiment: GST pull-down of MYC-UPF1 with GST-LIN28A in presence of CPP-conjugated peptide; assay type: cell-based; details: 293T cells, CPP-peptide 2 μM 12 h, n = 3
Description: For CPP-conjugated peptide delivery, HeLa, 293T, and PA-1 cells were incubated with CPP-conjugated peptides or CPP-FITC at 2 μM in DMEM with 10% FBS for 12 h a day before cell harvest. hPSCs were treated with CPP-conjugated peptides at 10 μM in mTeSR Plus Medium, and the peptide-containing medium was changed every day over 10 days. The ROCK inhibitor (Tocris Bioscience, Y-27632) treated-hPSCs were dissociated into single cells using Accutase (Merck, SCR005) and differentiated into ectoderm, mesoderm, and endoderm using the STEMdiff Trilineage Differentiation Kit ([…] Technologies, 05230) following the manufacturer’s protocol. Differentiated cells treated with CPP-conjugated peptides were analysed at 0, 3, and 5 days for ectoderm and endoderm, and at 0, 3, and 4 days for mesoderm.
Cells were lysed in ice-cold hypotonic buffer (10 mM Tris-Cl pH 7.5, 10 mM NaCl, 10 mM EDTA, 0.5% Triton X 100, Xpert Protease inhibitor cocktail solution, and Xpert Phosphatase inhibitor cocktail solution (GenDEPOT)). […]
Protein samples were loaded for electrophoresis on sodium dodecyl sulphate (SDS) polyacrylamide gels, followed by Coomassie blue staining or transferred to nitrocellulose membranes (Cytiva) for WB. […] The blots were imaged using ChemiDoc XRS+ System (Bio-Rad) and the greyscale intensity values were quantified using Image Lab 3.0 software (Bio-Rad).

His-LIN28A = biological target: T1, His-LIN28A (Homo sapiens, UniProt Q9H9Z2); experiment: SPR kinetic evaluation of peptide binding to immobilised His-LIN28A
T1 construct: purchased LS-bio LS-G637
T1 sequence (Q9H9Z2 1-209): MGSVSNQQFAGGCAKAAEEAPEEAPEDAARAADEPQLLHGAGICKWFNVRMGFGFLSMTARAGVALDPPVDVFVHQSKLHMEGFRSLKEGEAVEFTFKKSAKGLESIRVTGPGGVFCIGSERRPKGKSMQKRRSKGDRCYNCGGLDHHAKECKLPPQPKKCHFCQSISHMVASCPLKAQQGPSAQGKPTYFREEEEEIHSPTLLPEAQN
Description: For ligand immobilisation, the nitrilotriacetic acid (NTA) surface gold sensor chip (icluebio) was activated with 5 mM NiCl2 (Xantec) at a flow rate of 30 μL/min, following equalisation with 1× HBS-T buffer. His-LIN28A (LS-bio, LS-G637) was used as a ligand protein and was applied to a sensor chip at a flow rate of 10 μL/min for 40 min after dilution in 1× HEPES-buffered saline (HBS-T) buffer at a 1/20 ratio. Approximately 1000 resonance units (RU) were bonded to the sensor chip after ligand immobilisation. RU was measured using iMSPR-ProX (icluebio). An indigenous NTA sensor chip was used as a reference channel.
Kinetics assessment was performed for peptides with RU values greater than 5.

KKKWCRKKKSSADEKRYRALKRTAERELLMNA [CPP-P8, CPP conjugated to P8]
coimmunoprecipitated MYC-UPF1 with GST-LIN28A (UPF1-LIN28A interaction): reduced upon CPP-P8 treatment

KKKWCRKKKSSADEKRYRALKRTAERELLMNA [P8]
kd (His-LIN28A; His-LIN28A ligand, peptide analyte 30 to 0.95 μM, HBS-T): 0.0137 s⁻¹ | kon (His-LIN28A; His-LIN28A ligand, peptide analyte 30 to 0.95 μM, HBS-T, read-out: ka): 2640 M⁻¹ s⁻¹ | binding affinity to LIN28A (His-LIN28A; diverse concentrations): high binding affinity to LIN28A

From paper PMC10762078, “Role of UPF1-LIN28A interaction during early differentiation of pluripotent stem cells” (Nature Communications, 2024)
